Source: patent US20240425807A1, “MANUFACTURING METHOD OF MIXED POWDER, MIXED POWDER, POWDER, AND POWDER MEDIUM” (FUJIFILM Corporation, priority 2022, published 2024)

Assays:
[1] = Overall evaluation based on solubility and liquid property; type: physicochemical; conditions: combined from solubility and liquid property
[2] = Liquid property (pH) of solution obtained in solubility evaluation; type: physicochemical; conditions: pH of the solution obtained in the solubility evaluation (tyrosine 0.44 g/L in distilled water)
Method: A pH of the solution obtained in the evaluation of solubility was evaluated. Liquid property was evaluated according to the following evaluation standard.

Liquid property [2]: Neutral (pH of 6.0 to 8.5)
Compound: N[C@@H](Cc1ccc(O)cc1)C(=O)O [Comparative Example 1, L-tyrosine]
Overall evaluation [1]: E (the solution was still turbid even after 1 hour, and/or the pH was other than neutral)
